This note sets out measurements from PubChem BioAssay AID1508610 (The Scripps Research Institute Molecular Screening Center, 2020).

The term EC50 denotes the midpoint of the concentration-response curve.

Each structure is given as a SMILES string. Active and inactive are the calls of the source. The rule behind the calls is not given here. Where only a bound is given, the exact number is not on record here.

The target of the assay is G-protein coupled receptor 151 (Homo sapiens) (UniProt Q8TDV0). The experiment in a line: GPR151 activator potency, dose response, cell-based (AID 1508610). Particulars: cell-based GPR151 activation reporter.
G-protein coupled receptor 151 (Homo sapiens), sequence (Q8TDV0 whole entry, looked up): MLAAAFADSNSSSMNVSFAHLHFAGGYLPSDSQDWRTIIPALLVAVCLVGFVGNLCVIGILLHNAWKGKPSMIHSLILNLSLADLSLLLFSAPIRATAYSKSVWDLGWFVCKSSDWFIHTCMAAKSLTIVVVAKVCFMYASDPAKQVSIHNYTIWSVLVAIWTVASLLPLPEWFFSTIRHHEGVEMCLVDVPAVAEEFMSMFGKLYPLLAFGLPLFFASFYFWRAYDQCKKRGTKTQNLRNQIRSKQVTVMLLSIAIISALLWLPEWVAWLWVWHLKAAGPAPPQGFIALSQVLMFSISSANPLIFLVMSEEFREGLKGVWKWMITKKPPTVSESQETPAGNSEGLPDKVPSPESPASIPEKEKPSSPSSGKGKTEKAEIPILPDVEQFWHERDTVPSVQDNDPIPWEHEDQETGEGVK
For the compound `COc1cccc(/C=C(\C#N)c2nc3ccc(C)cc3[nH]2)c1OC`, the EC50 is > 33.2 µM (inactive).

`COc1ccc(CCNc2ncnc3c2oc2ccccc23)cc1OC`: the EC50 was > 27.6 µM (inactive).

Regarding `CCOC(=O)c1sc(NC(=O)C2CC2)nc1C`, the EC50 was > 28.6 µM (inactive).

Regarding `CCC(C(=O)OC)n1cnc2scc(-c3cccc([N+](=O)[O-])c3)c2c1=O` (stereo not drawn), the EC50 was > 28 µM (inactive).

Consider `CCN(CC)S(=O)(=O)c1ccc(C(=O)Nc2ccc(Cc3ccncc3)cc2)cc1`, for which the EC50 is > 25 µM (inactive).

For `COc1ccc(C(=O)/C=C\N2CCOCC2)cc1`, the EC50 is > 28 µM (inactive).

On to `COc1ccc(C2C3C(C)=NN=C3CC(C)(O)C2C(C)=O)cc1` (stereo not drawn), for which the EC50 entry is “inactive”.

`CC(C)N1CCC(=NNC(=O)c2ccc(C(C)(C)C)cc2)CC1`: the EC50 was > 28 µM (inactive).

As to `Fc1ccc(CSc2ncn[nH]2)cc1`, the EC50 is > 50.7 µM (inactive).

Turning to `CC(=O)Nc1ccc(NC(=O)c2ccc3nc(Nc4ccccn4)sc3c2)cc1`, the EC50 is > 28 µM (inactive).

For the compound `COc1ccc(-c2ccc(C(=O)Nc3ccccc3)s2)cn1`, the EC50 was > 28 µM (inactive).

As for `COc1ccccc1C(=O)Nc1nc2ccccc2s1`, the EC50 is > 26.2 µM (inactive).

With `COc1ccc(C(=O)N/N=C/c2ccc(O)cc2O)cc1OC`, the EC50 was > 28 µM (inactive).

In the case of `O=C(Nc1nc2cc3c(cc2s1)OCO3)C1=COCCO1`, the EC50 was > 27.4 µM (inactive).

Consider `COc1ccc(N2CCN(C3CC(=O)NC3=O)CC2)cc1` (stereo not drawn), for which the EC50 is > 28 µM (inactive).

On to `COc1ccc(/C=C/C(=O)Nc2ccccc2)cc1`, for which the EC50 was > 32.6 µM (inactive).

For the compound `O=C(c1ccc2c(c1)OCO2)N1CCN(c2ccc(Cl)cc2)CC1`, the EC50 was > 28 µM (inactive).

With `C[C@H]1NC(=O)[C@H]2CN(C(=O)NCc3ccccc3)CCN2C1=O`, the EC50 is > 28 µM (inactive).

Regarding `O=C(Nc1noc2ccccc12)c1c(F)cccc1F`, the EC50 is > 28 µM (inactive).

For the compound `O=C1N(CN2CCC3(CC2)OCCO3)c2ccccc2C12OCCCO2`, the EC50 was > 28 µM (inactive).

For `CCOC(=O)C(=O)N1CCN(c2ccccc2)CC1`, the EC50 is > 28 µM (inactive).

Take `CCN(CC)C(=S)SCCC(=O)NC(=O)Nc1ccc(F)cc1`: the EC50 is > 28 µM (inactive).

Turning to `O=S(=O)(O)c1ccc2nc(-c3ccccc3)[nH]c2c1`, the EC50 is > 28 µM (inactive).

For the compound `CCOC(=O)c1cnc2c(OC)cccc2c1NC1CCCCCC1`, the EC50 entry is “inactive”.

In the case of `Cn1c(=O)c2c(nc(N3CCCCCC3)n2CCc2ccccc2)n(C)c1=O`, the EC50 was > 27.9 µM (inactive).

On to `COc1ccc(-c2ccc(C(=O)NCCc3ccc(O)cc3)s2)cc1`, for which the EC50 was > 27.7 µM (inactive).

On to `COc1ccccc1-c1nnc(NC(=O)c2ccc([N+](=O)[O-])s2)o1`, for which the EC50 was > 9.17 µM (inactive).

As to `CSc1ccc(/C=N/NC(=O)C[n+]2ccccc2)cc1`, the EC50 was > 28 µM (inactive).
